19 compounds from patent publication US9453051B2, “Cyclosporin derivatives” (priority 2011, dated 2016) can be followed below.

One test has as its system NFAT. The experiment in a line: Cellular NFAT-reporter-gene assay (GloResponse NFAT-RE-luc2P HEK293). Format: cell-based. Conditions: Homo sapiens, read-out: NFAT-reporter-gene assay IC50. From the text:
An antigen specific stimulation of the T-cell receptor causes the activation of transcription factors such as e.g. NFAT (nuclear factor of activated T cells). NFAT-activation is essential for the expression of interleukine-2 and therefore, for the proliferation of T-cells as part of the immune response. A stable NFAT-reporter-gene cell line enables the analysis of modulators of the NFAT-pathways and thus, the evaluation of the immunosuppressive effects of compounds.
The stably transfected reporter-gene cell line GloResponse NFAT-RE-luc2P HEK293 (promega Corp. USA) was cultivated in DMEM (10% FCS; 2 mM Glutamin; 200 μg/ml Hygromycin) and seeded on 96-well plates (200.000 cells/well). The compounds to be tested were either added to the cells in a 2-point-determination (5 μM and 10 μM) or an ICH-determination (concentration series 4.1 nM-1 μM). […] Immediately thereafter the cells were stimulated with 5 nM PMA and 2 μM ionomycin and incubated over 16 h (37° C.; cell incubator). This double stimulation simulates a T-cell receptor stimulation and causes a NFAT activation with subsequently expression of the luciferase-reporter-gene. The amount of luciferase was quantitatively determined after 16 h by measurement of the bioluminescence by Bright-Glo Luciferase-Assay-System (Promega Corp., USA). The averaged luciferase values of the vehicle treated (1% DMSO) and with PMA/ionomycin stimulated cells were used as positive control and reference value.

Test [1] deals with recombinant human wild type Cyp18 (Cyp18 wt) (Homo sapiens, UniProt P62937). The test is described as follows: biochemical.
Experimental: The determination was performed on a UV/Vis spectrometer at 10° C. cuvette temperature, whereby the device is operated at 390 nm in kinetic-mode (measurement buffer: 35 mM HEPES/NaOH pH 7.8 (AppliChem A1069)). 0.58 nM recombinant human wild type Cyp18 (Cyp18 wt), 2.33 nM bovine serum albumin (BSA) and 1 mg/ml chymotrypsin (Merck) solved in 35 mM HEPES/NaOH pH 7.8 as well as different concentration of each test substance, where appropriate, were in the cuvette. The reaction was started with a stock solution of Suc-Ala-Ala-Pro-Phe-4-nitroanilide (Bachem, 10 mg/ml DMSO) as substrate so that a final substrate concentration of 32 μM resulted. The extinction-time-curves were evaluated after expiry of the fast phase of the reaction i.e. after approximately 60 seconds according to a rate equation of a first-order reaction.
A further test has as its target calcineurin (Homo sapiens, UniProt P62937+P63098+Q08209). The test is described as follows: Inhibition of the phosphatase activity of calcineurin (scintillation-proximity-assay, in presence of Cyp18).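 Also: calcineurin dephosphorylation of a ³³P-labelled RII phosphopeptide, captured on streptavidin-coated wells and read by scintillation counting, with uninhibited enzyme activity taken as 100%.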

Read-outs that look alike come from different tables or passages of the source.

recombinant human wild type Cyp18 (Cyp18 wt), sequence (P62937 whole entry): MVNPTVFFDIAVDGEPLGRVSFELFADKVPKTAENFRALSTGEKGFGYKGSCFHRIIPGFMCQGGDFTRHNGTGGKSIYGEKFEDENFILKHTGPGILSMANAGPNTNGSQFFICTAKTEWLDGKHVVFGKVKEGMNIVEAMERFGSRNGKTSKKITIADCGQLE
Experimental for calcineurin: The measurement was carried out by incubation of 10 μMol of the biotinylated phosphopeptide [sequence]pSer-Val-Ala-Ala-Glu (MW=2192.0) (RH-peptide) marked with ^33P in a sample buffer (40 mM Tris-HCl, pH 7.5, 100 mM NaCl, 6 mM MgCl2, 0.5 mM dithiothreitol, 1 mM. CaCl2, 0.1 mg/ml bovine serum albumin) in presence of 50 nM calmodulin and 1.32 nM calcineurin at 30° C. for 20 min in a 96 well micro titer plate (Costar, Bodenheim, Germany). The total volume of the assay/well was 100 μl. After this reaction time a 90 μl aliquot of the reaction mixture was transferred into a scintillation cavity coated with streptavidin and incubated for 20 min at 22° C. After a washing step the RII phosphopeptide-associated ^33P radioactivity was measured in a MicroBeta Top Counter (Wallac) and the enzyme activity was indicated as average value of three measurements±S.D. The uninhibited dephosphorylation activity has been set on 100%.

The term IC50 denotes the concentration that gives 50% inhibition. Regarding `CC[C@@H]1NC(=O)[C@H]([C@H](O)[C@H](C)Cc2nc3ccc(C(=O)OC)c(C(=O)OC)c3[nH]2)N(C)C(=O)[C@H](C(C)C)N(C)C(=O)[C@H](CC(C)C)N(C)C(=O)[C@H](CC(C)C)N(C)C(=O)[C@@H](C)NC(=O)[C@H](C)NC(=O)[C@H](CC(C)C)N(C)C(=O)[C@H](C(C)C)NC(=O)[C@H](CC(C)C)N(C)C(=O)CN(C)C1=O` [Compound 30], the IC50 in the test with NFAT (HEK293, 16 h) is greater than 10 µM; in test [1], 0.0291 µM.

Regarding `CC[C@@H]1NC(=O)[C@H]([C@H](O)[C@H](C)Cc2nc3cc(C(=O)OCCN4CCOCC4)ccc3[nH]2)N(C)C(=O)[C@H](C(C)C)N(C)C(=O)[C@H](CC(C)C)N(C)C(=O)[C@H](CC(C)C)N(C)C(=O)[C@@H](C)NC(=O)[C@H](C)NC(=O)[C@H](CC(C)C)N(C)C(=O)[C@H](C(C)C)NC(=O)[C@H](CC(C)C)N(C)C(=O)CN(C)C1=O` [Compound 27], the IC50 on calcineurin was 6.4 µM; in the test with NFAT (HEK293, 16 h), 7.4 µM; in test [1], 0.0059 µM.

Consider `CCOC(=O)c1ccc2[nH]c(C[C@@H](C)[C@@H](O)[C@H]3C(=O)N[C@@H](CC)C(=O)N(C)CC(=O)N(C)[C@@H](CC(C)C)C(=O)N[C@@H](C(C)C)C(=O)N(C)[C@@H](CC(C)C)C(=O)N[C@@H](C)C(=O)N[C@H](C)C(=O)N(C)[C@@H](CC(C)C)C(=O)N(C)[C@@H](CC(C)C)C(=O)N(C)[C@@H](C(C)C)C(=O)N3C)nc2c1` [Compound 9], for which the IC50 was 7 µM on calcineurin; greater than 10 µM in the test with NFAT (HEK293, 16 h); 0.0139 µM in test [1].

For `CC[C@@H]1NC(=O)[C@H]([C@H](O)[C@H](C)Cc2nc3cc(C(=O)NC(CCC(=O)O)C(=O)NC(CCC(=O)O)C(=O)O)ccc3[nH]2)N(C)C(=O)[C@H](C(C)C)N(C)C(=O)[C@H](CC(C)C)N(C)C(=O)[C@H](CC(C)C)N(C)C(=O)[C@@H](C)NC(=O)[C@H](C)NC(=O)[C@H](CC(C)C)N(C)C(=O)[C@H](C(C)C)NC(=O)[C@H](CC(C)C)N(C)C(=O)CN(C)C1=O` (stereo partly shown) [Compound 13], the IC50 was greater than 10 µM at calcineurin; greater than 10 µM in the test on NFAT (HEK293, 16 h); 0.0111 µM in test [1].

As for `CC[C@@H]1NC(=O)[C@H]([C@H](O)[C@H](C)Cc2nc3cc(C(=O)OCCN(C)C)ccc3[nH]2)N(C)C(=O)[C@H](C(C)C)N(C)C(=O)[C@H](CC(C)C)N(C)C(=O)[C@H](CC(C)C)N(C)C(=O)[C@@H](C)NC(=O)[C@H](C)NC(=O)[C@H](CC(C)C)N(C)C(=O)[C@H](C(C)C)NC(=O)[C@H](CC(C)C)N(C)C(=O)CN(C)C1=O` [Compound 26], the IC50 on calcineurin was 6.2 µM; in the test on NFAT (HEK293, 16 h), greater than 10 µM; in test [1] it was 0.0108 µM.

Consider `CC[C@@H]1NC(=O)[C@H]([C@H](O)[C@H](C)Cc2nc3cc(C(=O)NN)ccc3[nH]2)N(C)C(=O)[C@H](C(C)C)N(C)C(=O)[C@H](CC(C)C)N(C)C(=O)[C@H](CC(C)C)N(C)C(=O)[C@@H](C)NC(=O)[C@H](C)NC(=O)[C@H](CC(C)C)N(C)C(=O)[C@H](C(C)C)NC(=O)[C@H](CC(C)C)N(C)C(=O)CN(C)C1=O` [Compound 19], for which the IC50 at calcineurin is 7 µM; in the test on NFAT (HEK293, 16 h), greater than 10 µM; in test [1] it was 0.0054 µM.

For the compound `CC[C@@H]1NC(=O)[C@H]([C@H](O)[C@H](C)Cc2nc3c(F)c(F)cc(S(=O)(=O)O)c3[nH]2)N(C)C(=O)[C@H](C(C)C)N(C)C(=O)[C@H](CC(C)C)N(C)C(=O)[C@H](CC(C)C)N(C)C(=O)[C@@H](C)NC(=O)[C@H](C)NC(=O)[C@H](CC(C)C)N(C)C(=O)[C@H](C(C)C)NC(=O)[C@H](CC(C)C)N(C)C(=O)CN(C)C1=O` [Compound 20], the IC50 at calcineurin is greater than 10 µM; in the test with NFAT (HEK293, 16 h) it was greater than 10 µM; in test [1], 0.0067 µM.

In the case of `CC[C@@H]1NC(=O)[C@H]([C@H](O)[C@H](C)Cc2nc3ccc4c(S(=O)(=O)O)cccc4c3[nH]2)N(C)C(=O)[C@H](C(C)C)N(C)C(=O)[C@H](CC(C)C)N(C)C(=O)[C@H](CC(C)C)N(C)C(=O)[C@@H](C)NC(=O)[C@H](C)NC(=O)[C@H](CC(C)C)N(C)C(=O)[C@H](C(C)C)NC(=O)[C@H](CC(C)C)N(C)C(=O)CN(C)C1=O` [Compound 45], the IC50 with NFAT (HEK293, 16 h) is greater than 10 µM.

Consider `CC[C@@H]1NC(=O)[C@H]([C@H](O)[C@H](C)Cc2nc3cc(C(=O)NCCN4CCOCC4)ccc3[nH]2)N(C)C(=O)[C@H](C(C)C)N(C)C(=O)[C@H](CC(C)C)N(C)C(=O)[C@H](CC(C)C)N(C)C(=O)[C@@H](C)NC(=O)[C@H](C)NC(=O)[C@H](CC(C)C)N(C)C(=O)[C@H](C(C)C)NC(=O)[C@H](CC(C)C)N(C)C(=O)CN(C)C1=O` [Compound 53], for which the IC50 was found to be 4.2 µM at calcineurin and 0.0127 µM in test [1].

Turning to `CC[C@@H]1NC(=O)[C@H]([C@H](O)[C@H](C)Cc2nc3cc(C(=O)NCCC(=O)NCCC(=O)NCCC(=O)NCCC(=O)NCCC(=O)NCCC(=O)O)ccc3[nH]2)N(C)C(=O)[C@H](C(C)C)N(C)C(=O)[C@H](CC(C)C)N(C)C(=O)[C@H](CC(C)C)N(C)C(=O)[C@@H](C)NC(=O)[C@H](C)NC(=O)[C@H](CC(C)C)N(C)C(=O)[C@H](C(C)C)NC(=O)[C@H](CC(C)C)N(C)C(=O)CN(C)C1=O` [Compound 51], the IC50 on calcineurin was greater than 10 µM; in test [1], 0.0073 µM.

Regarding `CCCCOC(=O)c1ccc2[nH]c(C[C@@H](C)[C@@H](O)[C@H]3C(=O)N[C@@H](CC)C(=O)N(C)CC(=O)N(C)[C@@H](CC(C)C)C(=O)N[C@@H](C(C)C)C(=O)N(C)[C@@H](CC(C)C)C(=O)N[C@@H](C)C(=O)N[C@H](C)C(=O)N(C)[C@@H](CC(C)C)C(=O)N(C)[C@@H](CC(C)C)C(=O)N(C)[C@@H](C(C)C)C(=O)N3C)nc2c1` [Compound 11], in the test with NFAT (HEK293, 16 h), the IC50 stood at 10 µM.

Regarding `CC[C@@H]1NC(=O)[C@H]([C@H](O)[C@H](C)CC2=N[C@@H]3CS[C@H](CCCCC(=O)O)[C@@H]3N2)N(C)C(=O)[C@H](C(C)C)N(C)C(=O)[C@H](CC(C)C)N(C)C(=O)[C@H](CC(C)C)N(C)C(=O)[C@@H](C)NC(=O)[C@H](C)NC(=O)[C@H](CC(C)C)N(C)C(=O)[C@H](C(C)C)NC(=O)[C@H](CC(C)C)N(C)C(=O)CN(C)C1=O` [Compound 4], the IC50 at calcineurin was greater than 10 µM; in test [1] it was 0.264 µM.

With `CC[C@@H]1NC(=O)[C@H]([C@H](O)[C@H](C)CC2=NC(C(=O)O)CO2)N(C)C(=O)[C@H](C(C)C)N(C)C(=O)[C@H](CC(C)C)N(C)C(=O)[C@H](CC(C)C)N(C)C(=O)[C@@H](C)NC(=O)[C@H](C)NC(=O)[C@H](CC(C)C)N(C)C(=O)[C@H](C(C)C)NC(=O)[C@H](CC(C)C)N(C)C(=O)CN(C)C1=O` (stereo partly shown) [Compound 43], the half-inhibitory concentration (IC50) with NFAT (HEK293, 16 h) came out at 5.3 µM; in test [1], 0.0453 µM.

Consider `CC[C@@H]1NC(=O)[C@H]([C@H](O)[C@H](C)Cc2nc3ncnc(O)c3[nH]2)N(C)C(=O)[C@H](C(C)C)N(C)C(=O)[C@H](CC(C)C)N(C)C(=O)[C@H](CC(C)C)N(C)C(=O)[C@@H](C)NC(=O)[C@H](C)NC(=O)[C@H](CC(C)C)N(C)C(=O)[C@H](C(C)C)NC(=O)[C@H](CC(C)C)N(C)C(=O)CN(C)C1=O` [Compound 18], for which the IC50 with NFAT (HEK293, 16 h) was greater than 10 µM; in test [1], 0.0014 µM.

With `CC[C@@H]1NC(=O)[C@H]([C@H](O)[C@H](C)CC2=NCCN2)N(C)C(=O)[C@H](C(C)C)N(C)C(=O)[C@H](CC(C)C)N(C)C(=O)[C@H](CC(C)C)N(C)C(=O)[C@@H](C)NC(=O)[C@H](C)NC(=O)[C@H](CC(C)C)N(C)C(=O)[C@H](C(C)C)NC(=O)[C@H](CC(C)C)N(C)C(=O)CN(C)C1=O` [Compound 42], in the test with NFAT (HEK293 reporter cells stimulated with 5 nM PMA and 2 μM ionomycin, 16 h), the IC50 turned out to be 10 µM.

`CC[C@@H]1NC(=O)[C@H]([C@H](O)[C@H](C)Cc2nc3nc(S)nc(S)c3[nH]2)N(C)C(=O)[C@H](C(C)C)N(C)C(=O)[C@H](CC(C)C)N(C)C(=O)[C@H](CC(C)C)N(C)C(=O)[C@@H](C)NC(=O)[C@H](C)NC(=O)[C@H](CC(C)C)N(C)C(=O)[C@H](C(C)C)NC(=O)[C@H](CC(C)C)N(C)C(=O)CN(C)C1=O` [Compound 16]: the values for the half-maximal inhibitory concentration (IC50) (at calcineurin; in test [1]) were 7.5 µM and 0.0151 µM, respectively.

Consider `CC[C@@H]1NC(=O)[C@H]([C@H](O)[C@H](C)Cc2nc3cc(C(=O)Oc4ccccc4C(=O)O)ccc3[nH]2)N(C)C(=O)[C@H](C(C)C)N(C)C(=O)[C@H](CC(C)C)N(C)C(=O)[C@H](CC(C)C)N(C)C(=O)[C@@H](C)NC(=O)[C@H](C)NC(=O)[C@H](CC(C)C)N(C)C(=O)[C@H](C(C)C)NC(=O)[C@H](CC(C)C)N(C)C(=O)CN(C)C1=O` [Compound 65], for which the IC50 on calcineurin is greater than 10 µM; in test [1], 0.0202 µM.

For the compound `CC[C@@H]1NC(=O)[C@H]([C@H](O)[C@H](C)Cc2nc3cc(/C=C/C(=O)OC(C)(C)C)ccc3[nH]2)N(C)C(=O)[C@H](C(C)C)N(C)C(=O)[C@H](CC(C)C)N(C)C(=O)[C@H](CC(C)C)N(C)C(=O)[C@@H](C)NC(=O)[C@H](C)NC(=O)[C@H](CC(C)C)N(C)C(=O)[C@H](C(C)C)NC(=O)[C@H](CC(C)C)N(C)C(=O)CN(C)C1=O` [Compound 14], the IC50 on calcineurin turned out to be 3.2 µM; in test [1] it was 0.0364 µM.

As for `CC[C@@H]1NC(=O)[C@H]([C@H](O)[C@H](C)Cc2nc3cc(C(=O)OC(C)C)ccc3[nH]2)N(C)C(=O)[C@H](C(C)C)N(C)C(=O)[C@H](CC(C)C)N(C)C(=O)[C@H](CC(C)C)N(C)C(=O)[C@@H](C)NC(=O)[C@H](C)NC(=O)[C@H](CC(C)C)N(C)C(=O)[C@H](C(C)C)NC(=O)[C@H](CC(C)C)N(C)C(=O)CN(C)C1=O` [Compound 25], the IC50 in the test on NFAT (HEK293, 16 h) turned out to be 10 µM.
